The target of one data set is T1, recombinant human MMP-2 (Homo sapiens, UniProt P08253).
T1 sequence (P08253 110-660): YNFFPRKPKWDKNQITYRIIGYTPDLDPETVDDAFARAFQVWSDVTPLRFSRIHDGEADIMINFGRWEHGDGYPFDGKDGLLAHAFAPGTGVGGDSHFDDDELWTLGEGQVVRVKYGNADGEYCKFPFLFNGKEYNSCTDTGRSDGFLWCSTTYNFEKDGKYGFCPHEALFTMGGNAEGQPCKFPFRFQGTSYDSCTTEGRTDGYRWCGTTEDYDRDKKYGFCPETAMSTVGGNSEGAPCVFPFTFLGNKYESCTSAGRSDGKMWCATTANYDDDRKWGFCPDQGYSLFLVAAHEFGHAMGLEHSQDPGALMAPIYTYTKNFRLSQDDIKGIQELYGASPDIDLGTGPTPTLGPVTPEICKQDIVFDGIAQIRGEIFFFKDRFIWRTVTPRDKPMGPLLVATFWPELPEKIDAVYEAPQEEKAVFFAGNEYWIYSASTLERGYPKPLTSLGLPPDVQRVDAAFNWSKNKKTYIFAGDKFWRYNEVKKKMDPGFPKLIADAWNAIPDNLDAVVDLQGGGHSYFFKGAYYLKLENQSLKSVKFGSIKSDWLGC
Description: biochemical.

Another data set concerns the target recombinant human MMP-13 (Homo sapiens, UniProt P45452). The data set is described as follows: biochemical.
Details of data set [1]: AUC (0-∞): unit not given beside the values. Particulars: for t½ Hour: Rat Intravenous 20 mpk.
Another data set concerns the target T2, recombinant human MMP-1 (Homo sapiens, UniProt P03956).
T2 construct: made in house; host or cells: transfected HT-1080 cells (provided by Dr. Harold Welgus, Washington University)
T2 sequence (P03956 100-469): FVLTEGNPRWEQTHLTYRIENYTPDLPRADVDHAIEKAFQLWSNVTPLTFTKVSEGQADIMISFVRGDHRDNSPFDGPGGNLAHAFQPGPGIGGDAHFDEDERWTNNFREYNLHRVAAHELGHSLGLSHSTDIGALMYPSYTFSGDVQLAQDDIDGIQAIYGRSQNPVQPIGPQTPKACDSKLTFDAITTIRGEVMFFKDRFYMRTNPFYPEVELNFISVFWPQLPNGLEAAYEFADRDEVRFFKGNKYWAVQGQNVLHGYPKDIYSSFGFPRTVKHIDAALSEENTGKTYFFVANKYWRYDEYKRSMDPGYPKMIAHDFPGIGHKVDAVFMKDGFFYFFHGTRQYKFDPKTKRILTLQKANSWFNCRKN
Description: biochemical.

For the next data set, the target named is recombinant human MMP-9 (Homo sapiens, UniProt P14780). The data set is described as follows: biochemical.
Setting [2] is: Inhibition Table B, read-out: MMP-2 IC50.
The mark [3] stands for this setting: Inhibition Table B, read-out: MMP-13 IC50.
Where [4] appears, read: Inhibition Table B, read-out: MMP-9 IC50.
The mark [5] stands for this setting: Inhibition Table B, read-out: MMP-1 IC50.

Where a name gives a salt, the structure may show the parent alone. Read-outs that look alike come from different tables or passages of the source. A value given as a limit tells only on which side of the number the result lay.

Chain of recombinant human MMP-9 (P14780 107-707 limits assumed): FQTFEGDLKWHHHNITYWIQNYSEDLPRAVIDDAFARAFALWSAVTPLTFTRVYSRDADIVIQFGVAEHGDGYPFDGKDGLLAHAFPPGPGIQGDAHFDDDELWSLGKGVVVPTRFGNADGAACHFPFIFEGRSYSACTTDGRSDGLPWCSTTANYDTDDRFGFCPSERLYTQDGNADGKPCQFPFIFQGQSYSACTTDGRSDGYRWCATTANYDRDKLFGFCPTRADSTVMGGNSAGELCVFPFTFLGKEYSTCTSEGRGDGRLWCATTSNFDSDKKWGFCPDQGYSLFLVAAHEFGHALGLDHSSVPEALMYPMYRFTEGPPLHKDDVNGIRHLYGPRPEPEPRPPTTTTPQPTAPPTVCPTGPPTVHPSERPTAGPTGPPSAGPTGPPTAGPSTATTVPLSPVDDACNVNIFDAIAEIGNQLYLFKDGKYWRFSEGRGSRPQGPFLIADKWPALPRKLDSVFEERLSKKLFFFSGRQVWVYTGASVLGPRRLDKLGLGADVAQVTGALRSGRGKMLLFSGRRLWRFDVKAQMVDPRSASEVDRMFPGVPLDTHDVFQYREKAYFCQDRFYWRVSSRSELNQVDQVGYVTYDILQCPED

As for `CC(=O)N1CCC(C(=O)NO)(S(=O)(=O)c2ccc(Oc3ccccc3)cc2)CC1` [Example 12], the 50% inhibitory concentration (IC50) – broadly, the concentration at which inhibition is half-maximal – on recombinant human MMP-2 (MMP-2 IC50 (nM)) was under 0.1 nM; on recombinant human MMP-13, under 0.1 nM; at recombinant human MMP-1, 464 nM. The “AUC (0-∞)” value in data set [1] (rat, in vivo) is reported as 22.11. In data set [1] (rat, in vivo), this compound had a t1/2 of 0.86 h. In addition, in data set [1] (rat, in vivo, iv, 20 mg/kg), the “Blood Level @ 3 min” value came out at 73.54 µg/mL.
Consider `O=C(NO)C1(S(=O)(=O)c2ccc(Oc3ccccc3)cc2)CCN(C2CC2)CC1` [Example 17], for which the half-inhibitory concentration (IC50) came to 0.2 nM at recombinant human MMP-2 (MMP-2 IC50 (nM)); […] at recombinant human MMP-13; 400 nM on recombinant human MMP-1 (Inhibition Table A, read-out: MMP-1 IC50); […] on recombinant human MMP-9. Further, the “AUC (0-∞)” value in data set [1] (rat, in vivo) stood at 37.10. Moreover, the “Blood Level @ 3 min” value in data set [1] (rat, in vivo) turned out to be 63.44 µg/mL; in data set [1] (rat, in vivo, iv, 20 mg/kg), 63.44 µg/mL. For the same compound, the t1/2 in data set [1] (rat, in vivo) was 0.74 h. Besides, the BA in data set [1] (rat, in vivo, 20 mg/kg) is 35.9%. The compound also returned a BA % in data set [1] (rat, in vivo, 20 mg/kg) of 35.9%.
For `Cl.O=C(NO)C1(S(=O)(=O)c2ccc(Sc3ccccc3)cc2)CCN(C2CC2)CC1` [Example 32, 1-cyclopropyl-N-hydroxy-4-[[4-(phenylthio)phenyl]sulfonyl]-4-piperidine Carboxamide, Monohydrochloride], the IC50 is 0.1 nM on recombinant human MMP-2 (setting [2]), 0.2 nM at recombinant human MMP-13 (setting [3]), over 10000 nM at recombinant human MMP-1 and 2.5 nM at recombinant human MMP-9 (setting [4]). Also, in data set [1], the “t½ Hour” value was determined as 1.03 h.
For `CN1CCC(C(=O)NO)(S(=O)(=O)c2ccc(Sc3ccccc3)cc2)CC1.Cl` [Example 33, N-hydroxy-1-methyl-4-[[4-(phenylthio)phenyl]sulfonyl]-4-piperidinecarboxamide, Monohydrochloride], in that order: 0.5 nM, 0.8 nM, over 10000 nM, 9.4 nM and 1.91 h.
As for `CC(=O)N1CCC(C(=O)NO)(S(=O)(=O)c2ccc(Sc3ccccc3)cc2)CC1.Cl` [Example 36, 1-acetyl-N-hydroxy-4-[[4-(phenylthio)phenyl]sulfonyl]-4-piperidinecarboxamide, Monohydrochloride], the IC50 was 0.4 nM on recombinant human MMP-2 (setting [2]), 0.6 nM on recombinant human MMP-13 (setting [3]), 7300 nM on recombinant human MMP-1 (setting [5]) and 8 nM on recombinant human MMP-9 (setting [4]). For the same compound, in data set [1], the “t½ Hour” value was 0.65 h.
`C#CCN1CCC(C(=O)NO)(S(=O)(=O)c2ccc(Oc3ccc(C)c(C)c3)cc2)CC1.Cl` [Example 43, 4-[[4-(3,4-Dimethylphenoxyl)phenyl]sulfonyl]-N-hydroxy-1-(2-propynyl)-4-piperidinecarboxamide, Monhydrochloride]: the concentration for half-maximal inhibition (IC50) at recombinant human MMP-2 (setting [2]) was determined as 0.4 nM; at recombinant human MMP-13 (setting [3]) it was 0.8 nM; on recombinant human MMP-1 (setting [5]), 7000 nM. In addition, the “t½ Hour” value in data set [1] was determined as 0.82 h.
As to `Cl.O=C(NO)C1(S(=O)(=O)c2ccc(Oc3ccc(-n4cncn4)cc3)cc2)CCS(=O)(=O)CC1` [Example 53, Tetrahydro-N-hydroxy-4-[[4-[4-(1H-1,2,4-triazol-1-yl)phenoxy]-phenyl]-sulfonyl]-2H-thiopyran-4-carboxamide 1,1-dioxide, Monohydrochloride], the half-inhibitory concentration (IC50) on recombinant human MMP-2 (setting [2]) was 0.3 nM; on recombinant human MMP-13 (setting [3]), 1.5 nM; at recombinant human MMP-1 (setting [5]) it was over 10000 nM; on recombinant human MMP-9 (setting [4]), 92 nM. In addition, the “t½ Hour” value in data set [1] is 0.97 h.
On to `C#CCN1CCC(C(=O)NO)(S(=O)(=O)c2ccc(Oc3ccc(Cl)c(C)c3)cc2)CC1.Cl` [Example 81, 4-[[4-(4-chloro-3-methylphenoxy)phenyl]sulfonyl]-N-hydroxy-1-(2-propynyl)-4-piperidinecarboxamide, Monohydrochloride], for which the half-maximal inhibitory concentration (IC50) at recombinant human MMP-2 (setting [2]) is 0.1 nM; at recombinant human MMP-13 (setting [3]), 0.3 nM; on recombinant human MMP-1 (setting [5]), 3300 nM. Besides, the “t½ Hour” value in data set [1] worked out at 0.76 h.
Regarding `O=C(NO)C1(S(=O)(=O)c2ccc(Oc3ccccc3)cc2)CCOCC1` [Example 94, Tetrahydro-N-hydroxy-4-[(4-phenoxyphenyl)sulfonyl]-2H-pyran-4-carboxamide], the half-inhibitory concentration (IC50) at recombinant human MMP-2 (setting [2]) and on recombinant human MMP-13 (setting [3]) was under 0.1 nM throughout. Besides, in data set [1], the “t½ Hour” value was found to be 1.71 h.
`Cl.O=C(NO)C1(S(=O)(=O)c2ccc(Oc3ccc(-n4ccnc4)cc3)cc2)CCOCC1` [Example 99, tetrahydro-N-hydroxy-4-[[4-[4-(1H-imidazol-1-yl)phenoxy]phenyl]-sulfonyl]-2H-pyran-4-carboxamide, Monohydrochloride]: the half-inhibitory concentration (IC50) at recombinant human MMP-2 (setting [2]) was 0.4 nM; at recombinant human MMP-13 (setting [3]), 1 nM; at recombinant human MMP-1 (setting [5]), over 10000 nM. The “t½ Hour” value in data set [1] was 0.68 h.
For `O=C(NO)C1(S(=O)(=O)c2ccc(Oc3ccccc3)cc2)CC[S+]([O-])CC1` (centres unmarked) [Example 111], in that order: 0.5 nM, 1.3 nM, 3700 nM and 0.65 h.
On to `O=C(NO)C1(S(=O)(=O)c2ccc(Oc3ccc(C(F)(F)F)cc3)cc2)CCN(CCN2CCOCC2)CC1` [Example 388, N-hydroxy-1-[2-(4-morpholinyl)-ethyl]-4-[[4-[4-(trifluoromethyl)phenoxy]-phenyl]sulfonyl]-4-piperidinecarboxamide, Dihydrochloride], for which the “t½ Hour” value in data set [1] was 0.94 h.
Same read-out and setting: the value for `O=C(NO)C1(S(=O)(=O)c2ccc(Oc3ccc(C(F)(F)F)cc3)cc2)CCN(Cc2cccnc2)CC1` [Example 390, N-hydroxy-1-(3-pyridinylmethyl)-4-[[4-[4-trifluoromethyl)phenoxy]phenyl]-sulfonyl]-4-piperidinecarboxamide, Dihydrochloride] was 1.50 h; that for `O=C(NO)C1(S(=O)(=O)c2ccc(Oc3ccc(C(F)(F)F)cc3)cc2)CCN(Cc2ccccn2)CC1` [Example 391, N-hydroxy-1-(2-pyridinylmethyl)-4-[[4-[4-(trifluoromethyl)phenoxy]phenyl]-sulfonyl]-4-piperidinecarboxamide, Dihydrochloride] was 1.45 h.
As to `Cl.O=C(NO)C1(S(=O)(=O)c2ccc(Oc3ccc4c(c3)OCCO4)cc2)CCN(C2CC2)CC1` [Example 408, 1-cyclopropyl-4-[[4-[(2,3-dihydro-1,4-benzodioxin-6-yl)oxy]phenyl]-sulfonyl]-N-hydroxy-4-piperidine-carboxamide, Monohydrochloride], the “t½ Hour” value in data set [1] was 3.30 h.
On the same count and under the same terms, the value for `Cl.O=C(NO)C1(S(=O)(=O)c2ccc(Oc3ccc(OC(F)(F)F)cc3)cc2)CCNCC1` [Example 410, N-hydroxy-4-[[4-[(trifluoromethoxy)phenoxy]phenyl]sulfonyl]-4-piperidinecarboxamide, Monohydrochloride] was 1.78 h; that for `C#CCN1CCC(C(=O)NO)(S(=O)(=O)c2ccc(Oc3ccc(C(C)C)cc3)cc2)CC1.Cl` [Example 414, N-hydroxy-4-[[4-[4-(1-methylethyl)phenoxy]phenyl]sulfonyl]-1-(2-propynyl)-4-piperidinecarboxamide, Monohdyrochloride] was 0.73 h.
Regarding `COCCN1CCC(C(=O)NO)(S(=O)(=O)c2ccc(Oc3ccc(OC(F)(F)F)cc3)cc2)CC1.Cl` [Example 416, N-hydroxy-1-(2-methoxyethyl)-4-[[4-[4-(trifluoromethoxy)phenoxy]phenyl]sulfonyl}-4-piperidinecarboxamide, Monohydrochloride], the “t½ Hour” value in data set [1] worked out at 2.94 h.
Regarding `COCCN1CCC(C(=O)NO)(S(=O)(=O)c2ccc(Oc3ccc(C(F)(F)F)cc3)cc2)CC1.Cl` [Example 418, N-hydroxy-1-(2-methoxyethyl)-4-[[4-[4-(trifluoromethyl)-phenoxy]phenyl]sulfonyl}-4-piperidinecarboxamide, Monohydrochloride], the “t½ Hour” value in data set [1] is 2.42 h.
In the case of `Cl.O=C(NO)C1(S(=O)(=O)c2ccc(Oc3ccc(C(F)(F)F)cc3)cc2)CCN(C2CC2)CC1` [Example 427, 1-cyclopropyl-N-hydroxy-4-[[4-[4-(trifluoromethyl)phenoxy]phenyl]sulfonyl]-4-piperidinecarboxamide, Monohydrochloride], the “t½ Hour” value in data set [1] stood at 2.85 h.
Same read-out and setting: the value for `CCN1CCC(C(=O)NO)(S(=O)(=O)c2ccc(OCc3ccc(C(F)(F)F)cc3)cc2)CC1.Cl` [Example 438, 1-ethyl-N-hydroxy-4-[[4-[[4-[trifluoromethyl)phenyl]methoxy]-phenyl]sulfonyl]-4-piperidine-carboxamide, Monohydrochloride] was 2.14 h.
